Assay results reported in PubChem BioAssay (NCI).
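Cells were grown in 96-well plates and exposed to each compound for 48 hours at five concentrations; endpoints were interpolated linearly between bracketing concentrations, or set to the highest concentration if not reached. At the GI50, growth is halved. TGI is the concentration that stops growth completely.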

Tests used:
Test in all cases: NCI anticancer screen, dose series, 48 h
ACHN renal = test system: ACHN renal
CCRF-CEM leukemia = test system: CCRF-CEM leukemia
MOLT-4 leukemia = test system: MOLT-4 leukemia
NCI-H522 lung = test system: NCI-H522 lung
RXF 393 renal = test system: RXF 393 renal
SK-MEL-2 melanoma = test system: SK-MEL-2 melanoma
UO-31 renal = test system: UO-31 renal
DU-145 prostate = test system: DU-145 prostate
HS 578T breast = test system: HS 578T breast
MDA-MB-231 breast = test system: MDA-MB-231 breast

| SMILES | TGI (ACHN renal) [µM] | TGI (CCRF-CEM leukemia) [µM] | TGI (MOLT-4 leukemia) [µM] | TGI (NCI-H522 lung) [µM] | TGI (RXF 393 renal) [µM] | TGI (SK-MEL-2 melanoma) [µM] | TGI (UO-31 renal) [µM] | GI50 (ACHN renal) [µM] | GI50 (DU-145 prostate) [µM] | TGI (DU-145 prostate) [µM] | GI50 (HS 578T breast) [µM] | TGI (HS 578T breast) [µM] | GI50 (MDA-MB-231 breast) [µM] | TGI (MDA-MB-231 breast) [µM] | GI50 (MOLT-4 leukemia) [µM] | GI50 (NCI-H522 lung) [µM] | GI50 (RXF 393 renal) [µM] | GI50 (SK-MEL-2 melanoma) [µM] | GI50 (UO-31 renal) [µM] |
| --- | --- | --- | --- | --- | --- | --- | --- | --- | --- | --- | --- | --- | --- | --- | --- | --- | --- | --- | --- |
| O=c1cc2n(c(=O)[nH]1)C1OC(C(O)C1O)[C@H]2CCO (stereo partly specified) | > 100 | > 100 | > 100 | > 100 | > 100 | > 100 | > 100 | – | – | – | – | – | – | – | – | – | – | – | – |
| COc1ccc2nc3cc(Cl)ccc3c(NCCC(=O)OCC(O)C(O)C(O[C@H](C)C(=O)NC(C)C(=O)NC(CCC(N)=O)C(=O)OCc3ccccc3)C(C=O)NC(C)=O)c2c1 (stereo partly specified) | 32.2 | > 100 | 44.2 | 28 | – | 41.8 | 34.7 | – | – | – | – | – | – | – | – | – | – | – | – |
| COc1ccc(-c2cc(-c3ccc(O)cc3)nc3nc(=S)[nH]c(N)c23)cc1 | 65.5 | – | > 100 | 27.8 | 92.7 | 41.2 | 44.9 | 19.1 | 12.1 | 35.3 | 20.6 | 48.4 | 16.1 | 57.8 | 7.01 | 8.5 | 28 | 18.4 | 13.2 |
| C[C@]12CCC3[C@@H](C[C@H]4OC(=O)[C@@]35CCC(=O)C=C45)C1CCC2=O (stereo partly specified) | > 100 | > 100 | > 100 | > 100 | > 100 | > 100 | > 100 | – | – | – | – | – | – | – | – | – | – | – | – |
| COc1ccc(Nc2c3c4c(cccc4[nH]c2=O)C(=O)c2ccccc2-3)cc1 | > 100 | – | – | – | > 100 | > 100 | > 100 | 0.0406 | < 0.0181 | 0.0467 | 0.0238 | > 45.9 | 0.0451 | – | 0.558 | < 0.0175 | 0.0472 | 0.048 | 0.319 |
| COc1ccc(/C=C2\N=C(c3ccccc3)N(c3cc(C(F)(F)F)ccc3Cl)C2=O)cc1OC | > 100 | – | 71.7 | > 100 | 68.3 | 82.1 | > 100 | 58.1 | 43.1 | > 100 | 24.4 | 78.4 | 87 | > 100 | 29 | 31.8 | 33.5 | 31.9 | 48.4 |
| [N-]=[N+]=Nc1ccccc1-[n+]1noc([O-])c1Br | > 100 | > 100 | > 100 | > 100 | > 100 | > 100 | > 100 | – | – | – | – | – | – | – | – | – | – | – | – |
| O=C1CSC(=S)N1c1ccc(F)cc1F | > 100 | 76.4 | – | 47.3 | > 100 | > 100 | > 100 | – | – | > 100 | – | > 100 | – | > 100 | – | – | – | – | – |
| Cc1cc2cc(Cl)ccc2nc1C(=O)c1ccccc1 | > 100 | – | > 100 | > 100 | > 100 | > 100 | > 100 | – | – | – | – | – | – | – | – | – | – | – | – |
| Nc1nc(=O)n(C2CC(O)C(O)C(CO)O2)cc1F (stereo unspecified) | > 100 | > 100 | > 100 | > 100 | > 100 | > 100 | > 100 | – | – | – | – | – | – | – | – | – | – | – | – |
| COC(=O)C(/C(=N/N)C(=O)Nc1ccc(C)c(C)c1)c1nc2ccc(Cl)cc2[nH]c1=O (stereo unspecified) | > 100 | > 100 | > 100 | > 100 | > 100 | > 100 | > 100 | – | – | – | – | > 100 | – | > 100 | – | – | – | – | – |
| COC(=O)CSc1ccccc1 | > 100 | > 100 | > 100 | – | > 100 | 46.4 | > 100 | – | – | – | – | – | – | – | – | – | – | – | – |
| O=C(c1ccccn1)c1nnn2ccccc12 | > 100 | > 100 | > 100 | > 100 | – | > 100 | – | – | – | > 100 | – | > 100 | – | > 100 | – | – | – | – | – |
| COC(=O)CCC(=O)CC(=O)C(=O)Nc1ccc(F)cc1 | > 100 | > 100 | > 100 | > 100 | > 100 | > 100 | > 100 | – | – | – | – | – | – | – | – | – | – | – | – |
| N#Cc1ccc(/C=N\N2C(=O)c3ccccc3C2=O)cc1 | > 100 | > 100 | > 100 | – | > 100 | > 100 | > 100 | – | – | – | – | – | – | – | – | – | – | – | – |
| CNc1nnnn1C1OC(CO)C(O)C1O (stereo unspecified) | > 100 | > 100 | > 100 | > 100 | > 100 | > 100 | > 100 | – | – | – | – | – | – | – | – | – | – | – | – |
| COc1c(OC(C)=O)c(OC(C)=O)cc2c1-c1ccc(OC)c(=O)cc1C(NC(C)=O)CC2 (stereo unspecified) | > 100 | > 100 | > 85.8 | 0.0192 | – | 9.38 | > 100 | – | – | > 100 | – | > 100 | – | > 100 | – | – | – | – | – |
| COc1ccc(C(=O)/C(=N/Nc2ccccc2)c2ccc(OC)cc2)cc1 | > 100 | – | > 100 | > 100 | > 100 | > 100 | > 100 | – | – | – | – | – | – | – | – | – | – | – | – |
| COc1ccc(CN2C(=O)C(Cc3cc(OC)c(OC)c(C)c3OC)N(C(=O)OC(C)C)C(=O)/C2=C/c2cc(OC)c(OC)c(C)c2OC)cc1 (stereo unspecified) | > 100 | > 100 | > 100 | > 100 | > 100 | > 100 | > 100 | – | – | – | – | – | – | – | – | – | – | – | – |
| O=C(O)CN(CC(=O)O)Cc1cc2c(cc1O)Oc1cc(O)c(CN(CC(=O)O)CC(=O)O)cc1C21OC(=O)c2ccccc21 | > 100 | > 100 | > 100 | > 100 | – | > 100 | > 100 | – | – | > 100 | – | > 100 | – | > 100 | – | – | – | – | – |
| Cn1c(=O)nc2n(-c3ccc(F)cc3)c3ccccc3nc-2c1=O | 49.7 | 63.7 | 62.8 | 35.4 | 79.8 | 51.1 | > 100 | – | – | – | – | – | – | – | – | – | – | – | – |
| CCOC(=O)C1c2[nH]c3ccccc3c2CCN1C(=O)c1ccco1 (stereo unspecified) | > 10 | > 10 | > 10 | – | – | – | – | – | – | > 10 | – | > 10 | – | > 10 | – | – | – | – | – |
| COc1ccc2c(CC(=O)O)cc(=O)oc2c1 | > 100 | > 100 | > 100 | > 100 | > 100 | – | > 100 | – | – | > 100 | – | > 100 | – | > 100 | – | – | – | – | – |
